EC50 and IC50 data for 17 compounds are collected here from patent publication US10336762B2 (priority 2017, dated 2019).

The test system of assay [1] is TNFα. As to the kind of experiment: cells. The format is cell-based, human. The following applies: Homo sapiens, Monocyte, LPS-stimulated human monocytes, TNFα by TR-FRET; read-out: EC50 TNF. For orientation: Time-resolved FRET reads energy transfer from a long-lived donor to a nearby acceptor.
In assay [2] the target is IRAK4 enzyme (Homo sapiens (Human), UniProt Q9NWZ3). The experiment in a line: biochemical. Format: biochemical. Particulars: IRAK4 enzyme, TR-FRET, 500 μM ATP.
Sequence of IRAK4 enzyme (Q9NWZ3 whole entry): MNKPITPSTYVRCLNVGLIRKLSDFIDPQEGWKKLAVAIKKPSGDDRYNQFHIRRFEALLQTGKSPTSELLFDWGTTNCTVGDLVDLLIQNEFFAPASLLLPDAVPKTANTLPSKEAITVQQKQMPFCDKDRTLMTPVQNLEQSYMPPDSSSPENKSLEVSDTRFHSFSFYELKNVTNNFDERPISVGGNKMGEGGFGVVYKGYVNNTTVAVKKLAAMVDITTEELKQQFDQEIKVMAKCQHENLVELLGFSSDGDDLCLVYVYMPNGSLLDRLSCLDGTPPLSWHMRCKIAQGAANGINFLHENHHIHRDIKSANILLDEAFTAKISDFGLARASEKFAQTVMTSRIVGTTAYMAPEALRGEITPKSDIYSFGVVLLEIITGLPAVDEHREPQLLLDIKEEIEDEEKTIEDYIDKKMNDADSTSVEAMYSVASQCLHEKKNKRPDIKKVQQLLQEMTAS

One may read the EC50 as the concentration needed to bring the measured effect to its halfway point. What is called IC50 is the concentration that gives 50% inhibition. For `CC1(O)CN(C(=O)CNC(=O)c2cnc(-c3ccc4cc(C#N)cnn34)cc2NC23CCC(O)(CC2)CC3)C1` [Example 954, 6-(3-cyanopyrrolo[1,2-b]pyridazin-7-yl)-N-(2-(3-hydroxy-3-methylazetidin-1-yl)-2-oxoethyl)-4-((4-hydroxybicyclo[2.2.2]octan-1-yl)amino) nicotinamide], the EC50 in assay [1] came out at 0.213 µM. In assay [2], this compound had an IC50 of less than 0.001 µM.
Turning to `N#Cc1cnn2c(-c3cc(NC45CCC(O)(CC4)CC5)c(C(=O)N[C@H]4CNC4=O)cn3)ccc2c1` [Example 955, (S)-6-(3-cyanopyrrolo[1,2-b]pyridazin-7-yl)-4-((4-hydroxybicyclo[2.2.2]octan-1-yl)amino)-N-(2-oxo-azetidin-3-yl)nicotinamide], the EC50 in assay [1] was found to be 0.399 µM. Further, the 50% inhibitory concentration (IC50) in assay [2] was less than 0.001 µM.
Turning to `CC(C)(O)[C@H](F)CNC(=O)c1cnc(-c2ccc3cc(C#N)cnn23)cc1Nc1ccc(-c2cn[nH]c2)cn1` [Example 956, (R)-4-((5-(1H-pyrazol-4-yl)pyridin-2-yl)amino)-6-(3-cyanopyrrolo[1,2-b]pyridazin-7-yl)-N-(2-fluoro-3-hydroxy-3-methyl-butyl)nicotinamide], the EC50 in assay [1] was 0.031 µM. The half-maximal inhibitory concentration (IC50) in assay [2] is less than 0.001 µM.
Regarding `N#Cc1cnn2c(-c3cc(NC45CCC(O)(CC4)CC5)c(C(=O)N[C@H]4CCCNC4=O)cn3)ccc2c1` [Example 957, (S)-6-(3-cyanopyrrolo[1,2-b]pyridazin-7-yl)-4-((4-hydroxybicyclo[2.2.2]octan-1-yl)amino)-N-(2-oxo-piperidin-3-yl)nicotinamide], the EC50 in assay [1] was found to be 0.173 µM. In assay [2], the IC50 was less than 0.001 µM.
In the case of `N#Cc1cnn2c(-c3cc(NC45CCC(O)(CC4)CC5)c(C(=O)N[C@@H]4CCCNC4=O)cn3)ccc2c1` [Example 958, (R)-6-(3-cyanopyrrolo[1,2-b]pyridazin-7-yl)-4-((4-hydroxybicyclo[2.2.2]octan-1-yl)amino)-N-(2-oxo-piperidin-3-yl)nicotinamide], the EC50 in assay [1] came out at 0.219 µM. Moreover, in assay [2], the IC50 is 0.001 µM.
Regarding `N#Cc1cnn2c(-c3cc(NC45CCC(O)(CC4)CC5)c(C(=O)N[C@@H]4CCNC4=O)cn3)ccc2c1` [Example 959, (R)-6-(3-cyanopyrrolo[1,2-b]pyridazin-7-yl)-4-((4-hydroxybicyclo[2.2.2]octan-1-yl)amino)-N-(2-oxo-pyrrolidin-3-yl)nicotinamide], the EC50 in assay [1] worked out at 0.206 µM. The compound further came in with a 50% inhibitory concentration (IC50) in assay [2] of less than 0.001 µM.
As to `N#Cc1cnn2c(-c3cc(NC45CCC(O)(CC4)CC5)c(C(=O)N[C@H]4CCNC4=O)cn3)ccc2c1` [Example 960, (S)-6-(3-cyanopyrrolo[1,2-b]pyridazin-7-yl)-4-((4-hydroxybicyclo[2.2.2]octan-1-yl)amino)-N-(2-oxo-pyrrolidin-3-yl)nicotinamide], the 50% effective concentration (EC50) in assay [1] was found to be 0.316 µM. The same compound displayed a half-inhibitory concentration (IC50) in assay [2] of 0.001 µM.
As to `N#Cc1cnn2c(-c3cc(NC45CCC(O)(CC4)CC5)c(C(=O)NCC(F)(F)C(=O)N4CC(F)(F)C4)cn3)ccc2c1` [Example 961, 6-(3-cyanopyrrolo[1,2-b]pyridazin-7-yl)-N-(3-(3,3-difluoroazetidin-1-yl)-2,2-difluoro-3-oxopropyl)-4-((4-hydroxybicyclo[2.2.2]octan-1-yl)amino)nicotinamide], the concentration giving a half-maximal response (EC50) in assay [1] amounted to 0.382 µM. In assay [2], the half-inhibitory concentration (IC50) was 0.002 µM.
The matching figures for `CN(C)C(=O)C(F)(F)CNC(=O)c1cnc(-c2ccc3cc(C(N)=O)cnn23)cc1NC12CCC(O)(CC1)CC2` [Example 962, 7-(5-((3-(dimethylamino)-2,2-difluoro-3-oxopropyl)carbamoyl)-4-((4-hydroxybicyclo[2.2.2]octan-1-yl)amino)pyridin-2-yl)pyrrolo[1,2-b]pyridazine-3-carboxamide]: more than 10 µM and 0.65 µM.
As to `NC(=O)c1cnn2c(-c3cc(NC45CCC(O)(CC4)CC5)c(C(=O)NCC(F)(F)C(=O)N4CC(F)(F)C4)cn3)ccc2c1` [Example 963, 7-(5-((3-(3,3-difluoro-azetidin-1-yl)-2,2-difluoro-3-oxopropyl)carbamoyl)-4-((4-hydroxybicyclo[2.2.2]octan-1-yl)amino)pyridin-2-yl)pyrrolo[1,2-b]pyridazine-3-carboxamide], the EC50 in assay [1] was more than 10 µM. Further, 0.394 µM corresponded to half-maximal inhibition in assay [2] (IC50).
Regarding `N#Cc1cnn2c(-c3cc(NC45CCC(O)(CC4)CC5)c(C(=O)NC4(CF)CC4)cn3)ccc2c1` [Example 964, 6-(3-cyanopyrrolo[1,2-b]pyridazin-7-yl)-N-(1-(fluoromethyl)cyclo-propyl)-4-((4-hydroxy-bicyclo[2.2.2]octan-1-yl)amino)nicotinamide], the concentration giving a half-maximal response (EC50) in assay [1] came to 0.068 µM. Further, the midpoint of inhibition in assay [2], the IC50, lay at 0.001 µM.
As to `CC(C)(O)[C@H](F)CNC(=O)c1cnc(-c2ccc3cc(C#N)cnn23)cc1Nc1ccc(Cl)nc1` [Example 965, (R)-4-((6-chloropyridin-3-yl)amino)-6-(3-cyanopyrrolo[1,2-b]pyridazin-7-yl)-N-(2-fluoro-3-hydroxy-3-methylbutyl)nicotinamide], in assay [1], the half-maximal effective concentration (EC50) was 0.026 µM. In addition, in assay [2], the IC50 is less than 0.001 µM.
The matching figures for `CC(C)(O)[C@H](F)CNC(=O)c1cnc(-c2ccc3cc(C#N)cnn23)cc1Nc1cnc(-c2ccc3cc(C#N)cnn23)nc1` [Example 966, (R)-6-(3-cyanopyrrolo[1,2-b]pyridazin-7-yl)-4-((2-(3-cyanopyrrolo[1,2-b]pyridazin-7-yl)pyrimidin-5-yl)amino)-N-(2-fluoro-3-hydroxy-3-methylbutyl) nicotinamide]: more than 10 µM and 0.002 µM.
With `CC(C)(O)[C@H](F)CNC(=O)c1cnc(-c2ccc3cc(C#N)cnn23)cc1Nc1ccc(-c2cnoc2)nc1` [Example 967, (R)-6-(3-cyanopyrrolo[1,2-b]pyridazin-7-yl)-N-(2-fluoro-3-hydroxy-3-methylbutyl)-4-((6-(isoxazol-4-yl)pyridin-3-yl)amino) nicotinamide], the 50% effective concentration (EC50) in assay [1] came to 0.156 µM. The compound also came in with an IC50 in assay [2] of 0.003 µM.
On to `Cc1nc(-c2ccc(Nc3cc(-c4ccc5cc(C#N)cnn45)ncc3C(=O)NC[C@@H](F)C(C)(C)O)cc2)no1` [Example 968, (R)-6-(3-cyanopyrrolo[1,2-b]pyridazin-7-yl)-N-(2-fluoro-3-hydroxy-3-methylbutyl)-4-((4-(5-methyl-1,2,4-oxadiazol-3-yl)phenyl)amino) nicotinamide], for which, in assay [1], the half-maximal effective concentration (EC50) was determined as 0.081 µM. In assay [2], this compound returned an IC50 of 0.001 µM.
The matching figures for `CC(C)(O)[C@H](F)CNC(=O)c1cnc(-c2ccc3cc(C#N)cnn23)cc1Nc1cnc(Cl)cn1` [Example 970, (R)-4-((5-chloropyrazin-2-yl)amino)-6-(3-cyano-pyrrolo[1,2-b]pyridazin-7-yl)-N-(2-fluoro-3-hydroxy-3-methylbutyl)nicotinamide]: 0.057 µM and less than 0.001 µM.
Turning to `CC(C)(O)[C@H](F)CNC(=O)c1cnc(-c2ccc3cc(C#N)cnn23)cc1Nc1cnc(Cl)nc1` [Example 971, (R)-4-((2-chloropyrimidin-5-yl)amino)-6-(3-cyano-pyrrolo[1,2-b]pyridazin-7-yl)-N-(2-fluoro-3-hydroxy-3-methylbutyl)nicotinamide], the 50% effective concentration (EC50) in assay [1] was 0.074 µM. This compound also gave an IC50 in assay [2] of less than 0.001 µM.
